In ChEMBL document CHEMBL1154519, “Synthesis of novel di- and tricationic carbapenems with potent anti-MRSA activity” (Bioorg Med Chem Lett, 2009):
In brackets after ≈: the same amount, converted by molar mass.

Experiments:
[1] = test system: Staphylococcus aureus; assay: Antibacterial activity against methicillin-resistant Staphylococcus aureus 209P JC1; format: functional
[2] = test system: Staphylococcus aureus; assay: Antibacterial activity against methicillin-resistant Staphylococcus aureus M-126; format: functional
[3] = test system: Staphylococcus aureus; assay: Antibacterial activity against carbapenem-resistant Staphylococcus aureus M-126HR; format: functional
[4] = Solubility in water at 5 mg/mL; format: physicochemical
[5] = test system: Staphylococcus aureus; assay: Antibacterial activity against methicillin-resistant Staphylococcus aureus; format: functional

Structure (SMILES)	MIC [1] [µg/mL]	MIC [2] [µg/mL]	MIC [3] [µg/mL]	solubility [4] [mg/mL]	MIC50 [5] [µg/mL]	MIC90 [5] [µg/mL]
CSc1c2sc(C3=C(C(=O)O)N4C(=O)[C@H]([C@@H](C)O)[C@H]4[C@H]3C)cn2c[n+]1Cc1ccc(C[n+]2ccccc2)cc1.[Br-].[Br-]	< 0.006	0.78	1.56			
CSc1c2sc(C3=C(C(=O)O)N4C(=O)[C@H]([C@@H](C)O)[C@H]4[C@H]3C)cn2c[n+]1Cc1cccc(C[N+]23CC[N+](C)(CC2)CC3)c1.[I-].[I-].[I-]	< 0.006	0.78	1.56			
CSc1c2sc(C3=C(C(=O)O)N4C(=O)[C@H]([C@@H](C)O)[C@H]4[C@H]3C)cn2c[n+]1Cc1cccc(C[N+]23CC[N+](CCCN)(CC2)CC3)c1.[I-].[I-].[I-]	< 0.006	0.39	0.78	20	0.39	0.78
CSc1c2sc(C3=C(C(=O)O)N4C(=O)[C@H]([C@@H](C)O)[C@H]4[C@H]3C)cn2c[n+]1Cc1cccc(C[n+]2cccc(C(N)=O)c2)c1.[Br-].[Br-]	< 0.006	0.39	1.56			
CSc1c2sc(C3=C(C(=O)O)N4C(=O)[C@H]([C@@H](C)O)[C@H]4[C@H]3C)cn2c[n+]1Cc1cccc(C[N+]23CC[N+](CCO)(CC2)CC3)c1.[Br-].[I-].[I-]	< 0.006	0.78	1.56			
CSc1c2sc(C3=C(C(=O)O)N4C(=O)[C@H]([C@@H](C)O)[C@H]4[C@H]3C)cn2c[n+]1Cc1cccc(C[N+]2(C)CCOCC2)c1.[Br-].[Br-]	< 0.006	0.78	3.13			
CSc1c2sc(C3=C(C(=O)O)N4C(=O)[C@H]([C@@H](C)O)[C@H]4[C@H]3C)cn2c[n+]1Cc1ccc(C[N+]2(C)CCOCC2)cc1.[Br-].[Br-]	< 0.006	1.56	3.13			
CSc1c2sc(C3=C(C(=O)O)N4C(=O)[C@H]([C@@H](C)O)[C@H]4[C@H]3C)cn2c[n+]1Cc1ccccc1C[N+]1(C)CCOCC1.[Br-].[Br-]	< 0.006	1.56	3.13			
CSc1c2sc(C3=C(C(=O)O)N4C(=O)[C@H]([C@@H](C)O)[C@H]4[C@H]3C)cn2c[n+]1Cc1cccc(C[n+]2cc3sccn3c2)c1.[Br-].[Br-]	< 0.006	0.78	1.56			
CSc1c2sc(C3=C(C(=O)O)N4C(=O)[C@H]([C@@H](C)O)[C@H]4[C@H]3C)cn2c[n+]1Cc1ccccc1C[n+]1ccccc1.[Br-].[Br-]	< 0.006	1.56	3.13			
CSc1c2sc(C3=C(C(=O)O)N4C(=O)[C@H]([C@@H](C)O)[C@H]4[C@H]3C)cn2c[n+]1Cc1cccc(C[N+]2(C)CCCC2)c1.[Br-].[Br-]	< 0.006	0.78	3.13			
CSc1c2sc(C3=C(C(=O)O)N4C(=O)[C@H]([C@@H](C)O)[C@H]4[C@H]3C)cn2c[n+]1Cc1cccc(C[n+]2ccsc2)c1.[Br-].[Br-]	< 0.006	0.78	3.13			
CSc1c2sc(C3=C(C(=O)O)N4C(=O)[C@H]([C@@H](C)O)[C@H]4[C@H]3C)cn2c[n+]1Cc1cccc(C[n+]2ccccc2)c1.[Br-].[Br-]	< 0.006	0.78	1.56			
CSc1c2sc(C3=C(C(=O)O)N4C(=O)[C@H]([C@@H](C)O)[C@H]4[C@H]3C)cn2c[n+]1Cc1cccc(C[N+]23CC[N+](CC(N)=O)(CC2)CC3)c1.[Br-].[I-].[I-]	< 0.006	0.78	1.56			
CSc1c2sc(C3=C(C(=O)O)N4C(=O)[C@H]([C@@H](C)O)[C@H]4[C@H]3C)cn2c[n+]1Cc1cccc(C[n+]2ccc3ccccc3c2)c1.[Br-].[Br-]	< 0.006	0.78	1.56			
CSc1c2sc(C3=C(C(=O)[O-])N4C(=O)[C@H]([C@@H](C)O)[C@H]4[C@H]3C)cn2c[n+]1CC(N)=O	< 0.006	1.56 (≈ 3.57 µM)	3.13 (≈ 7.17 µM)			
CSc1c2sc(C3=C(C(=O)[O-])N4C(=O)[C@H]([C@@H](C)O)[C@H]4[C@H]3C)cn2c[n+]1Cc1ccc(C#N)cc1	< 0.006	0.78 (≈ 1.58 µM)	3.13 (≈ 6.33 µM)			
CSc1c2sc(C3=C(C(=O)[O-])N4C(=O)[C@H]([C@@H](C)O)[C@H]4[C@H]3C)cn2c[n+]1Cc1ccccc1	< 0.006	0.39 (≈ 0.831 µM)	1.56 (≈ 3.32 µM)			
CSc1c2sc(C3=C(C(=O)[O-])N4C(=O)[C@H]([C@@H](C)O)[C@H]4[C@H]3C)cn2c[n+]1Cc1cccc(N)c1	< 0.006	0.78 (≈ 1.61 µM)	3.13 (≈ 6.46 µM)			
CSc1c2sc(C3=C(C(=O)[O-])N4C(=O)[C@H]([C@@H](C)O)[C@H]4[C@H]3C)cn2c[n+]1Cc1ccc(Cl)cc1	< 0.006	0.78 (≈ 1.55 µM)	1.56 (≈ 3.1 µM)			
CCN(CC)C(=O)c1ccc(C[n+]2cn3cc(C4=C(C(=O)[O-])N5C(=O)[C@H]([C@@H](C)O)[C@H]5[C@H]4C)sc3c2SC)cc1	0.013 (≈ 0.0229 µM)	1.56 (≈ 2.74 µM)	6.25 (≈ 11 µM)			
COc1cccc(C[n+]2cn3cc(C4=C(C(=O)[O-])N5C(=O)[C@H]([C@@H](C)O)[C@H]5[C@H]4C)sc3c2SC)c1	< 0.006	0.78 (≈ 1.56 µM)	1.56 (≈ 3.12 µM)			
CSc1c2sc(C3=C(C(=O)[O-])N4C(=O)[C@H]([C@@H](C)O)[C@H]4[C@H]3C)cn2c[n+]1Cc1ccc(C(=O)O)cc1	0.025 (≈ 0.0487 µM)	3.13 (≈ 6.09 µM)	12.5 (≈ 24.3 µM)			
CSc1c2sc(C3=C(C(=O)[O-])N4C(=O)[C@H]([C@@H](C)O)[C@H]4[C@H]3C)cn2c[n+]1Cc1cccc(O)c1	< 0.006	0.39 (≈ 0.803 µM)	1.56 (≈ 3.21 µM)			
C[C@@H](O)[C@H]1C(=O)N2C(C(=O)O)=C(SCCNC=N)C[C@H]12 [IMIPENEM ANHYDROUS]	0.013 (≈ 0.0434 µM)	25 (≈ 83.5 µM)	100 (≈ 334 µM)			
CN[C@H](CC(C)C)C(=O)N[C@H]1C(=O)N[C@@H](CC(N)=O)C(=O)N[C@H]2C(=O)N[C@H]3C(=O)N[C@H](C(=O)N[C@H](C(=O)O)c4cc(O)cc(O)c4-c4cc3ccc4O)[C@H](O)c3ccc(c(Cl)c3)Oc3cc2cc(c3O[C@@H]2O[C@H](CO)[C@@H](O)[C@H](O)[C@H]2O[C@H]2C[C@](C)(N)[C@H](O)[C@H](C)O2)Oc2ccc(cc2Cl)[C@H]1O [VANCOMYCIN]	0.78 (≈ 0.538 µM)	1.56 (≈ 1.08 µM)	1.56 (≈ 1.08 µM)		1.56 (≈ 1.08 µM)	1.56 (≈ 1.08 µM)
